This experiment concerns Conditioned Avoidance Response (CAR). As to the kind of experiment: Conditioned Avoidance Response (CAR) test in mice, oral. In kind it is in vivo, mouse (female white mice). As to conditions: female white mice, moving average method.

Procedure: The paradigm used for predicting tranquilizer activity was a Conditioned Avoidance Response (CAR) test in mice. Female white mice, 19-23 g, were used. The apparatus modified from Bovet, D. et al., Science, 163, 139-149 (1969), was a one-way shuttlebox with 0.4 mA scrambled electric footshock as unconditioned stimulus (US) and a 6 watt white light plus a relay buzzer as conditioned stimuli (CS). Mice were conditioned by three sets of 1-5 trials on day 1, then were fasted for 17-21 hours. The conditioned mice were tested for retention of the conditioned response on day 2, and then were dosed orally with test drug at doses such as 0, 1, 3, 9, 27 and 81 mg/kg. ED50 values (doses at which 50% of the animals would be expected to show response failure) were calculated by the moving average method [Thompson, W. R., Bact. Rev., 11, 115 (1947)].

`CCN1CCc2c(c3cccc4c3n2-c2ccccc2C(=O)N4)C1` [Example 32]: the “Mouse CAR ED50 (avoidance ED50, dose at which 50% of the animals would be expected to show response failure)” value came out at 27 mg/kg. Under `CCCCCCN1CCc2c(c3cc(Cl)cc4c3n2-c2ccccc2C(=O)N4)C1` [Example 37] stands 11.8 mg/kg; under `O=C1Nc2cccc3c4c(n(c23)-c2ccccc21)CCN(CC1CCCCC1)C4` [Example 38], 56.2 mg/kg. Under `Cc1ccc2c(c1)C(=O)Nc1cc(Cl)cc3c4c(n-2c13)CCNC4` [Example 20] stands > 81 mg/kg; under `O=C1Nc2cc(Cl)cc3c4c(n(c23)-c2ccccc21)CCNC4` [Example 4], 29 mg/kg; under `CCN1CC[C@@H]2[C@@H](C1)c1cc(C(F)(F)F)cc3c1N2c1ccccc1CN3C` (relative stereo) [Example 107], 10.1 mg/kg.

Consider `FC(F)(F)c1cc2c3c(c1)[C@@H]1CN(CC4CC4)CC[C@H]1N3c1ccccc1CN2` (relative stereo) [Example 110], for which the “Mouse CAR ED50 (avoidance ED50, dose at which 50% of the animals would be expected to show response failure)” value was determined as 15.6 mg/kg. Under `O=C1Nc2cc(C(F)(F)F)cc3c4c(n(c23)-c2ccc(Cl)cc21)CCNC4` [Example 21] stands > 81 mg/kg; under `Clc1ccc2c(c1)CNc1cccc3c4c(n-2c13)CCN(CCc1ccccc1)C4` [Example 69], 27 mg/kg; under `CCN1CC[C@@H]2[C@@H](C1)c1cccc3c1N2c1ccccc1CN3C` (relative stereo) [Example 104], 41 mg/kg. Under `CN1CC[C@@H]2[C@@H](C1)c1cccc3c1N2c1ccc(Cl)cc1CN3` (relative stereo) [Example 99] stands 1.4 mg/kg; under `Clc1cc2c3c(c1)c1c(n3-c3ccccc3CN2)CCN(CC2CCCCC2)C1` [Example 68, 6-Chloro-3-cyclohexylmethyl-1,2,3,4,8,9-hexahydropyrido[4',3':2,3]indolo[1,7-ab][1,4]benzodiazepine], 7.1 mg/kg; under `CCN1CC[C@@H]2[C@@H](C1)c1cc(C(F)(F)F)cc3c1N2c1ccccc1CN3` (relative stereo) [Example 103], 1.2 mg/kg. With `Cl.O=C(O)CCCN1CCc2c(c3cc(Cl)cc4c3n2-c2ccccc2C(=O)N4)C1` [Example 51, 6-Chloro-1,2,8,9-tetrahydro-9-oxopyrido[4',3':2,3]indolo[1,7-ab][1,4]benzodiazepin-3(4H)-butanoic acid hydrochloride], the “Mouse CAR ED50 (avoidance ED50, dose at which 50% of the animals would be expected to show response failure)” value is recorded as 56.2 mg/kg. The same measure for `CCCCCCN1CCc2c(c3cc(Cl)cc4c3n2-c2ccc(C)cc2C(=O)N4)C1` [Example 42]: 162 mg/kg.

Turning to `CN1Cc2ccccc2N2c3c(cccc31)[C@@H]1CN(Cc3ccccc3)CC[C@H]12` (relative stereo) [Example 112], the “Mouse CAR ED50 (avoidance ED50, dose at which 50% of the animals would be expected to show response failure)” value was 6.8 mg/kg. Consider `Cc1ccc2c(c1)C(=O)Nc1ccc(Cl)c3c4c(n-2c13)CCNC4` [Example 9], for which the “Mouse CAR ED50 (avoidance ED50, dose at which 50% of the animals would be expected to show response failure)” value is listed as > 81 mg/kg.

Turning to `CCCN1CCc2c(c3c(Cl)ccc4c3n2-c2ccccc2C(=O)N4)C1` [Example 33], the “Mouse CAR ED50 (avoidance ED50, dose at which 50% of the animals would be expected to show response failure)” value was found to be 21.7 mg/kg. The same measure for `CN1CCc2c(c3cc(C(F)(F)F)cc4c3n2-c2ccc(Cl)cc2C(=O)N4)C1` [Example 17]: 37 mg/kg. For the compound `CCCCCCN1CCc2c(c3cccc4c3n2-c2ccc(Cl)cc2C(=O)N4)C1` [Example 43], the “Mouse CAR ED50 (avoidance ED50, dose at which 50% of the animals would be expected to show response failure)” value is on record as > 81 mg/kg.

In the case of `CCCCCCCCCCN1CCc2c(c3cc(Cl)cc4c3n2-c2ccccc2C(=O)N4)C1` [Example 44], the “Mouse CAR ED50 (avoidance ED50, dose at which 50% of the animals would be expected to show response failure)” value is listed as > 162 mg/kg. Regarding `CCN1CC[C@@H]2[C@@H](C1)c1cc(Cl)cc3c1N2c1ccccc1CN3.Cl.Cl` (relative stereo) [Example 96, trans-6-Chloro-3-ethyl-1,2,3,4,4a,8,9,14a-octahydropyrido[4',3':2,3]indolo[1,7-ab][1,4]benzodiazepine, Dihydrochloride], the “Mouse CAR ED50 (avoidance ED50, dose at which 50% of the animals would be expected to show response failure)” value is given as 0.3 mg/kg. Under “5-Chloro-1,2,3,4-tetrahydro-3-(3-oxobutyl)pyrido[4',3':2,3]indolo[1,7-ab][1,4]benzodiazepin-8(9H)-one [Example 52]” stands 39 mg/kg. Under `O=C1Nc2cccc3c4c(n(c23)-c2cc(Cl)ccc21)CCNC4` [Example 8] stands > 54 mg/kg; under `CN1CCc2c(c3c(Cl)ccc4c3n2-c2ccccc2C(=O)N4)C1` [Example 10], 19.7 mg/kg; under `O=C1Nc2cc(C(F)(F)F)cc3c4c(n(c23)-c2ccccc21)CCNC4` [Example 5], 81 mg/kg. Turning to `Clc1ccc2c(c1)CNc1cccc3c1N2[C@@H]1CCN(CC2CC2)C[C@@H]31` (relative stereo) [Example 109], the “Mouse CAR ED50 (avoidance ED50, dose at which 50% of the animals would be expected to show response failure)” value came to 2.1 mg/kg. `Clc1ccc2c(c1)CNc1cccc3c4c(n-2c13)CCNC4` [Example 61]: the “Mouse CAR ED50 (avoidance ED50, dose at which 50% of the animals would be expected to show response failure)” value is reported as 34 mg/kg. With `Clc1cc2c3c(c1)c1c(n3-c3ccccc3CN2)CCNC1` [Example 59, 6-Chloro-1,2,3,4,8,9-hexahydropyrido[4',3':2,3]indolo[1,7-ab][1,4]benzodiazepine], the “Mouse CAR ED50 (avoidance ED50, dose at which 50% of the animals would be expected to show response failure)” value was determined as 9.0 mg/kg. The same measure for `Cc1ccc2c(c1)C(=O)Nc1cc(Cl)cc3c4c(n-2c13)CCN(C)C4` [Example 13]: 10.5 mg/kg; for `CN1Cc2ccccc2-n2c3c(c4cc(C(F)(F)F)cc1c42)CNCC3` [Example 62]: > 81 mg/kg; for `O=C(CCCN1CCc2c(c3cc(Cl)cc4c3n2-c2ccccc2C(=O)N4)C1)c1ccc(F)cc1` [Example 40]: 47 mg/kg. The same measure for `CCCCCCN1CCc2c(c3cccc4c3n2-c2ccccc2C(=O)N4)C1` [Example 35]: 56.2 mg/kg; for `Cc1ccc2c(c1)CNc1cc(Cl)cc3c1N2[C@@H]1CCN(C)C[C@@H]31` (relative stereo) [Example 101]: 0.69 mg/kg; for `CCN1CC[C@@H]2[C@@H](C1)c1cc(Cl)cc3c1N2c1ccccc1CN3C` (relative stereo) [Example 106]: 5.8 mg/kg.

The record behind these values is patent US4438120A, “Pyridoindolobenzodiazepine tranquilizers” (E. I. Du Pont de Nemours & Company, priority 1982, dated 1984).
